The text below walks through data of patent US20230258624A1, “Ex vivo tumour immune microenvironment model, a method for preserving a tumour-specific immune cell profile in an ex vivo tumour immune microenvironment model and use of nanofibrillar cellulose” (UPM-Kymmene Corporation, priority 2022, published 2023).

The assay relates to PDECs. The assay is described as follows: Cytokine profiling (ELISA) of PDEC growth media. Type of assay: cell-based, human. The method, then: Media (1 ml) collected from NFC-grown PDECs or PBMCs at day 3 and day 7 timepoints was stored at −80° C. until the day of analysis. […] Cell and matrix debris were removed after thawing by centrifugation (10 min, 10 000 G, RT). Cytokines secreted to growth media were analyzed with R&D DuoSetELISA kits (IL2: DY202-05, IL-10: DY217B-05, TNF-α: DY210-05, IFN-γ: DY285B-05, IL-4: DY204-05, IL-6: DY206-05, IL-1β/IL1F2: DY201-05, LAP (TGF-β1): DY246-05) together with DuoSet Ancillary Reagent Kit 2 (DY008), according to manufacturer's protocol. Briefly, plates were coated with capture antibody overnight at RT, washed 3 times and blocked with 1% BSA in PBS for 1 hour. Samples diluted in growth media were added and incubated for 2 hours at RT. After 3 washes, detection antibody was added and incubated for 2 hours at RT. After washes, Streptavidin-HRP was added and incubated for 20 min at RT, protected from light. After washes, Substrate solution was added for 20 min, protected from light, after which the reaction was stopped with stop solution and absorbance was immediately determined using a microplate reader set to 450 nm, and 540 nm to subtract background (Omega Fluostar, BMG Labtech).

Turning to `O=C(O)CCCC[C@@H]1SC[C@@H]2NC(=O)N[C@@H]21` [biotin], the “amount of inflammatory cytokine IFN-γ” value (1 μM biotin added to PDEC growth media, NFC cultures) is “clearly decreased”. Moreover, under “biotin added to growth media after functionalization of the matrix”, the “inflammatory cytokine secretion into the media” value is “clearly decreased”.
